Assay results taken from patent US4117151A, “Therapeutic sulfonamides” (priority 1976, dated 1978).
Entries after “also recorded” stand apart in the source; their conditions may differ. Where a name gives a salt, the structure may show the parent alone.

Experiments:
acute toxicity in rats = type: in vivo; conditions: rat, in vivo, single administration, 12 days observation
Protocol: (§1) Finally, acute toxicity tests were carried out on rats and mice with Compound No. 7 and on rats with Compounds Nos. 13 and 14, the animals being kept under observation for 12 days following one single administration.

rats = assay: acute toxicity in rats; type: in vivo; conditions: single administration, 12 days observation
Protocol: as §1

[1] = test system: blood-flow to the myocardium; assay: arterial coronary blood-flow (blood-flow to the myocardium); type: in vivo, dog; conditions: 10 mg/kg intravenous
Protocol: (1) The capability of Compound No. 7 of increasing the blood-flow to the myocardium and thus stepping up the supply of oxygen to this muscle was determined in accordance with the technique described by R. CHARLIER and J. BAUTHIER in Arzneimittel Forschung "Drug Research" 23, 1305-1311 (1973).
Seven experiments were carried out on seven dogs, using a intravenous injection of 10 mg/kg of Compound No. 7. […] The increase in blood-flow was regular and the return to the control values took place progressively within twenty minutes.

cardiac output = assay: cardiac output; type: in vivo; conditions: dog, 10 mg/kg intravenous
Protocol: (§2) The same experimental conditions as above were observed and the following parameters were measured: […]

stroke volume = stroke volume (cardiac output divided by heart-beats per minute); type: in vivo; conditions: dog, 10 mg/kg intravenous; for Stroke Volume: initial value 100%
Protocol: The same experimental conditions as above were observed and the following parameters were measured:
Thus, in order to determine the effect of any particular substance on stroke volume, it is sufficient to divide cardiac output by the number of heart-beats per minute.

[2] = test system: oxygen consumption of the myocardium; assay: oxygen consumption of the myocardium (rate-pressure product); type: in vivo; conditions: anaesthetized dog, 10 mg/kg intravenous, 100 before administration
Protocol: This comparative trial aimed at determining the respective capabilities of the two substances to reduce the oxygen consumption of the myocardium. This property was measured by the indirect method known as the "rate-pressure product" which is a widely used and accurate haemodynamic index of myocardial oxygen consumption.
This method requires two cardiovascular parameters to be measured simultaneously, namely the mean aortic systolic blood-pressure and the heart-rate.
The "rate-pressure product" is obtained by multiplying the number of heart beats per minute by the mean aortic systolic blood-pressure. This provides an index of the total amount of oxygen used by the myocardium over a period of one minute. As it thus represents an accurate indication of the oxygen consumption of the myocardium, any lowering of the "rate-pressure product" indicates a corresponding drop in the oxygen consumption of the myocardium.
These tests were carried out on dogs which had been previously anaesthetized with sodium pentobarbital (30 mg/kg by intravenous route).
In both cases, the injection of 10 mg/kg took 2 minutes to administer.

acute toxicity in mice = type: in vivo; conditions: mouse, in vivo, single administration, 12 days observation
Protocol: as §1

mice = assay: acute toxicity in mice; type: in vivo; conditions: single administration, 12 days observation
Protocol: as §1

cardiac frequency = assay: cardiac frequency, 60 minutes experiment; type: in vivo; conditions: dog, 10 mg/kg intravenous, during 60 minutes
Protocol: as §2

myocardium = conditions: background; cited from earlier work
patient = conditions: clinical use; background; cited from earlier work

CCCCc1oc2ccccc2c1C(=O)c1ccc(N(CCCN(CCC)CCC)S(=O)(=O)c2ccc([N+](=O)[O-])cc2)cc1 [Compound 13, 2-n-butyl-3-[N-(3-di-n-propylaminopropyl)-N-(4-nitro-benzenesulfonyl)-4-amino-benzoyl]-benzofuran]
LD50 at 288 h (acute toxicity in rats; ip, intraperitoneal): 1000 mg/kg
LD0 (rats; intraperitoneal): 180 mg/kg
LD95 (rats; intraperitoneal): 3000 mg/kg

CCCCc1oc2ccccc2c1C(=O)c1ccc(N(CCN(C)C)S(=O)(=O)c2ccc(C)cc2)cc1 [Compound 7, 2-n-butyl-3-[N-(2-dimethylaminoethyl)-N-(4-methyl-benzenesulfonyl)-4-amino-benzoyl]-benzofuran]
return of blood-flow to the control values ([1]; dog, hydrochloride): twenty
supply of oxygen to the myocardium ([1]; dog, conclusion in words): increases to a very marked degree the supply of oxygen to the myocardium
maximal increase in blood-flow to the myocardium ([1]; seven dogs, after 3 minutes, hydrochloride): about 94%
return of cardiac output to the control value (cardiac output): ≤ 20 min
increase in cardiac output (cardiac output; after 2.5 minutes): 70%
increase in cardiac output (cardiac output; after 5 minutes): 50%
increase in stroke volume (stroke volume; during the first 5 minutes): above 100%
Stroke Volume (stroke volume; 2.5 min): 213%
Stroke Volume (stroke volume; 5 min): 200%
Stroke Volume (stroke volume; 10 min): 172%
Stroke Volume (stroke volume; 15 min): 152%
Stroke Volume (stroke volume; 20 min): 143%
Stroke Volume (stroke volume; 25 min): 136%
Stroke Volume (stroke volume; 30 min): 137%
Stroke Volume (stroke volume; 35 min): 138%
Stroke Volume (stroke volume; 40 min): 127%
Stroke Volume (stroke volume; 45 min): 127%
Stroke Volume (stroke volume; 50 min): 130%
Stroke Volume (stroke volume; 55 min): 120%
Stroke Volume (stroke volume; 60 min): 117%
performance of the cardiac muscle (stroke volume; conclusion in words): does not depress the performance of the cardiac muscle, and even stimulates this extremely important factor of cardiac functioning
Oxygen Consumption (rate-pressure product) ([2]; 2.5 minutes after): 54.4
Oxygen Consumption (rate-pressure product) ([2]; 5 minutes after): 57.8
Oxygen Consumption (rate-pressure product) ([2]; 10 minutes after): 63.5
Oxygen Consumption (rate-pressure product) ([2]; 15 minutes after): 64.8
Oxygen Consumption (rate-pressure product) ([2]; 20 minutes after): 64.8
Oxygen Consumption (rate-pressure product) ([2]; 25 minutes after): 65.2
Oxygen Consumption (rate-pressure product) ([2]; 30 minutes after): 65.6
Oxygen Consumption (rate-pressure product) ([2]; 35 minutes after): 66.0
Oxygen Consumption (rate-pressure product) ([2]; 40 minutes after): 66.8
Oxygen Consumption (rate-pressure product) ([2]; 45 minutes after): 67.2
Oxygen Consumption (rate-pressure product) ([2]; 50 minutes after): 67.6
Oxygen Consumption (rate-pressure product) ([2]; 55 minutes after): 68.9
Oxygen Consumption (rate-pressure product) ([2]; 60 minutes after): 68.9
LD50 at 288 h (acute toxicity in mice; ip, intraperitoneal): 275 mg/kg
LD50 at 288 h (acute toxicity in mice; po, intragastric): 2100 mg/kg
LD0 (mice; intragastric): 550 mg/kg
LD95 (mice; intragastric): 5000 mg/kg
LD0 (mice; intraperitoneal): 50 mg/kg
LD95 (mice; intraperitoneal): 900 mg/kg
LD50 at 288 h (acute toxicity in rats; ip, intraperitoneal): 600 mg/kg
LD50 at 288 h (acute toxicity in rats; po, intragastric): 1600 mg/kg
LD0 (rats; intragastric): 800 mg/kg
LD95 (rats; intragastric): 2400 mg/kg
LD0 (rats; intraperitoneal): 160 mg/kg
LD95 (rats; intraperitoneal): 1400 mg/kg
cardiac frequency (cardiac frequency): dropped to a highly significant degree during 60 minutes

C1CCC(C(CC2CCCCN2)C2CCCCC2)CC1 (stereo not shown) [perhexiline maleate]
anti-adrenergic effect (myocardium): does not possess any anti-adrenergic properties
cardiac frequency (myocardium): diminishing cardiac frequency
cardiac functioning (myocardium): does not appear to exert a depressant effect upon cardiac functioning
oxygen requirements of the myocardium (myocardium): reducing the oxygen requirements of the myocardium
supply of oxygen to the myocardium (myocardium): increasing the supply of oxygen to the myocardium

OCCN(CCO)c1nc(N2CCCCC2)c2nc(N(CCO)CCO)nc(N3CCCCC3)c2n1 [dipyridamole]
anti-adrenergic effect (myocardium): do not inhibit the cardio-vascular reactions to adrenergic stimulants
cardiac functioning (myocardium): do not depress the cardiac function
oxygen requirements of the myocardium (myocardium): do not reduce the oxygen requirements of the myocardium
supply of oxygen to the myocardium (myocardium): increase the supply of oxygen to the myocardium

CC(Cc1ccccc1)NCCC(c1ccccc1)c1ccccc1 (stereo not shown) [prenylamine]
anti-adrenergic effect (myocardium): do not inhibit the cardio-vascular reactions to adrenergic stimulants
cardiac functioning (myocardium): do not depress the cardiac function
oxygen requirements of the myocardium (myocardium): do not reduce the oxygen requirements of the myocardium
supply of oxygen to the myocardium (myocardium): increase the supply of oxygen to the myocardium

CCCCc1oc2ccccc2c1C(=O)c1ccc(N(CCCN(CCCC)CCCC)S(=O)(=O)c2ccc(OC)cc2)cc1 [Compound 14, 2-n-butyl-3-[N-(3-di-n-butylaminopropyl)-N-(4-methoxy-benzenesulfonyl)-4-amino-benzoyl]-benzofuran]
LD50 at 288 h (acute toxicity in rats; ip, intraperitoneal): 1000 mg/kg
LD0 (rats; intraperitoneal): 200 mg/kg
LD95 (rats; intraperitoneal): 3000 mg/kg

CCCCc1oc2ccccc2c1C(=O)c1cc(I)c(OCCN(CC)CC)c(I)c1 [Amiodarone, reference compound]
side-effects (patient): microdeposit in the cornea; also recorded: in a few rare cases, the development of a cutaneous sensitivity to light which can lead to a slate-coloured pigmentation of the skin; also recorded: dysfunction of the thyroid gland
four qualities of an ideal anti-anginal agent (myocardium): possesses the four qualities
Oxygen Consumption (rate-pressure product) ([2]; 2.5 minutes after): 80.9
Oxygen Consumption (rate-pressure product) ([2]; 5 minutes after): 79.1
Oxygen Consumption (rate-pressure product) ([2]; 10 minutes after): 81.7
Oxygen Consumption (rate-pressure product) ([2]; 15 minutes after): 79.7
Oxygen Consumption (rate-pressure product) ([2]; 20 minutes after): 79.6
Oxygen Consumption (rate-pressure product) ([2]; 25 minutes after): 80.4
Oxygen Consumption (rate-pressure product) ([2]; 30 minutes after): 80.2
Oxygen Consumption (rate-pressure product) ([2]; 35 minutes after): 79.6
Oxygen Consumption (rate-pressure product) ([2]; 40 minutes after): 79.6
Oxygen Consumption (rate-pressure product) ([2]; 45 minutes after): 79.6
Oxygen Consumption (rate-pressure product) ([2]; 50 minutes after): 80.9
Oxygen Consumption (rate-pressure product) ([2]; 55 minutes after): 80.0
Oxygen Consumption (rate-pressure product) ([2]; 60 minutes after): 79.1

CC(=O)Nc1ccc(OCC(O)CNC(C)C)cc1 (stereo not shown) [practolol]
anti-adrenergic effect (myocardium): exert an anti-adrenergic effect
cardiac frequency (myocardium): considerably reduce cardiac frequency
cardiac functioning (myocardium): depress cardiac functioning
oxygen requirements of the myocardium (myocardium): diminish the oxygen requirements of the myocardium
supply of oxygen to the myocardium (myocardium): lower the supply of oxygen to the myocardium

CC(C)NCC(O)COc1cccc2ccccc12 (racemic) [prapranolol]
anti-adrenergic effect (myocardium): exert an anti-adrenergic effect
cardiac frequency (myocardium): considerably reduce cardiac frequency
cardiac functioning (myocardium): depress cardiac functioning
oxygen requirements of the myocardium (myocardium): diminish the oxygen requirements of the myocardium
supply of oxygen to the myocardium (myocardium): lower the supply of oxygen to the myocardium
